Holding throughout (assay): manual whole-cell patch clamp
What all share (type): cell-based
Common to all, as to conditions: read-out: % inhibition at 30 nM

The target of assay [1] is T1, rat CLC-2 (Rattus norvegicus, UniProt P35525, K210M).
T1 sequence (P35525 1-907 K210M): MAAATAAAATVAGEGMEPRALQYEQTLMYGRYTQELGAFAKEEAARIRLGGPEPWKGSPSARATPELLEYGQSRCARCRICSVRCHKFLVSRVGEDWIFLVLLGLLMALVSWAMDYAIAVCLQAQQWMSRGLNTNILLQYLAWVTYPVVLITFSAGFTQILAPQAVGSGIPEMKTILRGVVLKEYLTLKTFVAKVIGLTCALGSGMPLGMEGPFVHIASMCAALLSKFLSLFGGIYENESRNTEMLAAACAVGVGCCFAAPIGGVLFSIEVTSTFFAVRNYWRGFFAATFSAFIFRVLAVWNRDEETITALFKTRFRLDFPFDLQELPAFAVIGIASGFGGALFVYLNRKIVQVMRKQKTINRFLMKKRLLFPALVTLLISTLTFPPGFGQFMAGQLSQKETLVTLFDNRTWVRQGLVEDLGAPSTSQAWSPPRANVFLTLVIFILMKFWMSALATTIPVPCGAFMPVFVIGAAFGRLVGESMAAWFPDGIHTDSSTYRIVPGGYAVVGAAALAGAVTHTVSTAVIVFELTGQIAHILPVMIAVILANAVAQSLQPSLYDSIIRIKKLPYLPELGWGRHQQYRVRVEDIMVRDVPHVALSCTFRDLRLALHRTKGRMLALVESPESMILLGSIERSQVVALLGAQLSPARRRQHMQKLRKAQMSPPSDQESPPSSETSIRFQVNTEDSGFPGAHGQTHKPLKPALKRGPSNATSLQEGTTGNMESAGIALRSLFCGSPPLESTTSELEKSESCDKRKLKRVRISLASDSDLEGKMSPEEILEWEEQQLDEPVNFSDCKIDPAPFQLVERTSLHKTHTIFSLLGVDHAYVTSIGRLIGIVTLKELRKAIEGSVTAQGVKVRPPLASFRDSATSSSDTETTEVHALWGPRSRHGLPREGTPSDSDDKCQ

The target of assay [2] is T2, rat CLC-2 (Rattus norvegicus, UniProt P35525, K210R).
T2 sequence (P35525 1-907 K210R): T1 sequence (P35525 1-907 K210M) with M210R

Assay [3] concerns the target T3, rat CLC-2 (Rattus norvegicus, UniProt P35525, Q399P).
T3 sequence (P35525 1-907 Q399P): T1 sequence (P35525 1-907 K210M) with M210K, Q399P

Positions count from the first letter of the chain named.

Regarding `O=C(O)c1cccnc1Nc1c(Cl)ccc(OCc2ccccc2)c1Cl` [AK-42], the inhibition at 0.03 µM is 23 ± 9% at rat CLC-2 [1], 27 ± 8% at rat CLC-2 [2] and 17 ± 5% on rat CLC-2 [3].

The values are drawn from publication doi:10.1101/2020.01.07.897785v2 (biorxiv, 2020).
